How the values were obtained:
[1] = tested on: circulating levels of luteinizing hormone (LH); assay: Castrated male rat model, circulating luteinizing hormone (LH); format: in vivo; conditions: single intravenous 10 mg/kg dose, castrated male Sprague-Dawley rats, 1 hour after dosing
Excerpt: Vehicle, N=10 rats; Compound n^o 1, N=9 rats.
Vehicle, n=5 rats; Compound n^o 19, n=5 rats.
In humans and rodents, castration is well-precedented to permit heightened, persistent GnRH signaling and consequent elevation of circulating LH. Thus, a castrated rat model is used to provide a broad index for measurement of LH inhibition as a marker of test compound inhibition of the GnRH signaling pathway.
Castrated adult male Sprague-Dawley (SD) rats (150-175 g,) were purchased from Janvier (St Berthevin, France). […] The animals were allowed 2 weeks of postoperative recovery prior to study. Animals were handled on a daily basis. Standard diet and tap water were provided ad libitum. Animal cage litters were changed once a week. On the study day, animals were acclimated to the procedure room for a period of one hour prior to the initiation of the experiment.
Compounds of the invention were formulated as a […] with 90 g/L (2-Hydroxypropyl)-β-CycloDextrin.
After basal sampling (T0) a single dose of compounds of the invention or vehicle was administrated intravenously to rats. Blood was then collected at 60 min post dosing. Blood samples were obtained via tail vein bleed, drawn into EDTA-containing tubes and centrifuged immediately. […] Serum LH levels were determined using radioimmunoas say kit from RIAZEN—Rat LH, Zentech (Liège, Belgium). […]

[2] = tested on: circulating levels of testosterone; assay: Gonad-intact adult male rat, circulating testosterone; format: in vivo; conditions: single intravenous 50 mg/kg dose, gonad-intact male Sprague-Dawley rats, over 210 minute test period (AUC)

SMILES | circulating LH levels [1] | plasma testosterone levels [2]
Cc1csc(-c2nnc3n2CCN(C(=O)c2ccc(-c4cccs4)cc2)[C@@H]3C)n1 [Compound 19, (R)-(8-methyl-3-(4-methylthiazol-2-yl)-5,6-dihydro-[1,2,4]triazolo[4,3-a]pyrazin-7(8H)-yl)(4-(thiophen-2-yl)phenyl)methanone] | significantly suppressed | –
Cc1nc(-c2nnc3n2CCN(C(=O)c2ccc(-c4cccs4)cc2)[C@@H]3C)cs1 [Compound 1, (R)-(8-methyl-3-(2-methylthiazol-4-yl)-5,6-dihydro-[1,2,4]triazolo[4,3-a]pyrazin-7(8H)-yl)(4-(thiophen-2-yl)phenyl)methanone] | significantly suppressed | significantly suppressed

— patent US10941151B2, “Chiral N-acyl-5,6,7(8-substituted)-tetrahydro-[1,2,4]triazolo[4,3-a]pyrazines as selective NK-3 receptor antagonists, pharmaceutical composition, methods for use in NK-3 receptor mediated disorders and chiral synthesis thereof” (Ogeda SA, priority 2011, dated 2021)
